Experimental data: PubChem BioAssay AID222 (DTP/NCI, 2004)
Where “and” joins values, the source holds several entries; their conditions need not be identical. Identical values can stand only once. Inconclusive results and toxic doses are left out.

Tested on: C57BL/6 mice, intracerebral ependymoblastoma, median survival T/C
Experiment: NCI In Vivo Anticancer Drug Screen. Data for tumor model Ependymoblastoma (intracerebral) in C57BL/6 mice
Conditions: endpoint: median survival time, higher = longer survival
Method: The antitumor activity of compounds was measured in mice bearing transplantable tumors. Survival or tumor size were measured and the results are expressed as the measurement made in the treated group (T) divided by the measurement made in the vehicle treated control group (C). The tumor model used in this assay is Ependymoblastoma (intracerebral) in C57BL/6 mice

For OC(C1CO1)C(O)C1CO1 (stereo unspecified), the T/C (dose: 2.0 mg/kg/injection, schedule: Q## X006 (ip), vehicle: clinical formulation) was 109 % of control, the T/C (dose: 2.0 mg/kg/injection, schedule: Q#A X002 (ip), vehicle: clinical formulation) was 106 % of control and the T/C (dose: 2.5 mg/kg/injection, schedule: Q01DX005 (oral), vehicle: saline) was 365 % of control. The T/C (dose: 3.0 mg/kg/injection, schedule: Q01DX005 (ip), vehicle: saline) was 119 % of control and 301 % of control, the T/C (dose: 4.0 mg/kg/injection, schedule: Q01DX001 (ip), vehicle: clinical formulation) was 102 % of control and 105 % of control and 108 % of control and the T/C (dose: 4.0 mg/kg/injection, schedule: Q01DX001 (ip), vehicle: saline) was 94 % of control and 120 % of control. The T/C (dose: 4.0 mg/kg/injection, schedule: Q01DX001 (oral), vehicle: saline) was 96 % of control, the T/C (dose: 4.0 mg/kg/injection, schedule: Q01DX009 (ip), vehicle: saline) was 103 % of control and the T/C (dose: 4.0 mg/kg/injection, schedule: Q03HX008 (ip), vehicle: saline) was 97 % of control. For the same molecule, the T/C (dose: 4.0 mg/kg/injection, schedule: Q03HX016 (ip), vehicle: saline) was 93 % of control, the T/C (dose: 4.0 mg/kg/injection, schedule: Q03HX024 (ip), vehicle: saline) was 94 % of control and the T/C (dose: 4.0 mg/kg/injection, schedule: Q04DX003 (ip), vehicle: saline) was 95 % of control. For the same molecule, the T/C (dose: 4.0 mg/kg/injection, schedule: Q08DX002 (ip), vehicle: saline) was 102 % of control, the T/C (dose: 4.0 mg/kg/injection, schedule: Q#A X002 (ip), vehicle: clinical formulation) was 117 % of control and the T/C (dose: 5.0 mg/kg/injection, schedule: Q01DX005 (oral), vehicle: saline) was 365 % of control. The T/C (dose: 8.0 mg/kg/injection, schedule: Q01DX001 (ip), vehicle: clinical formulation) was 89 % of control and 106 % of control, the T/C (dose: 8.0 mg/kg/injection, schedule: Q01DX001 (ip), vehicle: saline) was 94 % of control and 108 % of control and 112 % of control and the T/C (dose: 8.0 mg/kg/injection, schedule: Q01DX001 (oral), vehicle: clinical formulation) was 91 % of control and 102 % of control and 115 % of control. For the same molecule, the T/C (dose: 8.0 mg/kg/injection, schedule: Q01DX001 (oral), vehicle: saline) was 108 % of control, the T/C (dose: 8.0 mg/kg/injection, schedule: Q01DX009 (ip), vehicle: saline) was 107 % of control and the T/C (dose: 8.0 mg/kg/injection, schedule: Q03HX008 (ip), vehicle: saline) was 95 % of control. For the same molecule, the T/C (dose: 8.0 mg/kg/injection, schedule: Q03HX016 (ip), vehicle: saline) was 94 % of control, the T/C (dose: 8.0 mg/kg/injection, schedule: Q04DX003 (ip), vehicle: saline) was 122 % of control and the T/C (dose: 8.0 mg/kg/injection, schedule: Q08DX002 (ip), vehicle: saline) was 104 % of control. For the same molecule, the T/C (dose: 8.0 mg/kg/injection, schedule: Q#A X002 (ip), vehicle: clinical formulation) was 100 % of control, the T/C (dose: 16.0 mg/kg/injection, schedule: Q01DX001 (ip), vehicle: clinical formulation) was 98 % of control and the T/C (dose: 16.0 mg/kg/injection, schedule: Q01DX001 (ip), vehicle: saline) was 98 % of control and 101 % of control. The T/C (dose: 16.0 mg/kg/injection, schedule: Q01DX001 (oral), vehicle: clinical formulation) was 104 % of control and 108 % of control, the T/C (dose: 16.0 mg/kg/injection, schedule: Q01DX001 (oral), vehicle: saline) was 101 % of control and the T/C (dose: 16.0 mg/kg/injection, schedule: Q04DX003 (ip), vehicle: saline) was 99 % of control. The T/C (dose: 16.0 mg/kg/injection, schedule: Q08DX002 (ip), vehicle: saline) was 104 % of control, the T/C (dose: 16.0 mg/kg/injection, schedule: Q#A X002 (ip), vehicle: clinical formulation) was 102 % of control and the T/C (dose: 32.0 mg/kg/injection, schedule: Q01DX001 (ip), vehicle: clinical formulation) was 100 % of control. The T/C (dose: 32.0 mg/kg/injection, schedule: Q01DX001 (ip), vehicle: saline) was 90 % of control and 100 % of control, the T/C (dose: 32.0 mg/kg/injection, schedule: Q01DX001 (oral), vehicle: clinical formulation) was 100 % of control and 114 % of control and the T/C (dose: 32.0 mg/kg/injection, schedule: Q01DX001 (oral), vehicle: saline) was 103 % of control. For the same molecule, the T/C (dose: 32.0 mg/kg/injection, schedule: Q04DX003 (ip), vehicle: saline) was 92 % of control, the T/C (dose: 32.0 mg/kg/injection, schedule: Q08DX002 (ip), vehicle: saline) was 99 % of control and the T/C (dose: 64.0 mg/kg/injection, schedule: Q01DX001 (ip), vehicle: saline) was 97 % of control and 102 % of control. For the same molecule, the T/C (dose: 64.0 mg/kg/injection, schedule: Q01DX001 (oral), vehicle: clinical formulation) was 100 % of control and the T/C (dose: 128.0 mg/kg/injection, schedule: Q01DX001 (oral), vehicle: clinical formulation) was 100 % of control.
